Source: patent US7265120B2, “Pyrazine derivatives and pharmaceutical use thereof” (Astellas Pharma Inc., priority 2004, dated 2007)

| melting point | SMILES |
| --- | --- |
| 193 to 195 °C | CC(C)n1nc(-c2nc(N3CCN(c4ccccc4)CC3)c(N)nc2-c2ccccc2)ccc1=O [Example 115, 6-[5-amino-3-phenyl-6-(4-phenyl-1-piperazinyl)-2-pyrazinyl]-2-isopropyl-3(2H)-pyridazinone] |
| 132 to 135 °C | CC(C)n1nc(-c2nc(C(N)=O)c(N)nc2-c2ccccc2Br)ccc1=O [Example 190, 3-amino-5-(2-bromophenyl)-6-(1-isopropyl-6-oxo-1,6-dihydro-3-pyridazinyl)-2-pyrazinecarboxamide] |
| 240 to 243 °C | CC(C)n1nc(-c2nc(C(N)=O)c(N)nc2-c2ccccc2Br)ccc1=O [Example 192, 3-amino-5-(2-bromophenyl)-6-(1-isopropyl-6-oxo-1,6-dihydro-3-pyridazinyl)-2-pyrazinecarboxamide] |
| 204 to 206 °C | CC(C)n1nc(-c2nc(NCCc3ccccn3)c(N)nc2-c2ccccc2)ccc1=O [Example 106, 6-(5-amino-3-phenyl-6-{[2-(2-pyridyl)ethyl]amino}-2-pyrazinyl)-2-isopropyl-3(2H)-pyridazinone] |
| 150 to 152 °C | CC(C)n1nc(-c2nc(N3CCC(N(C)C)C3)c(N)nc2-c2ccccc2)ccc1=O (centres unmarked) [Example 109, 6-{5-amino-6-[3-(dimethylamino)-1-pyrrolidinyl]-3-phenyl-2-pyrazinyl}-2-isopropyl-3(2H)-pyridazinone] |
| 211 to 213 °C | CC(C)n1nc(-c2nc(-c3ccco3)c(N)nc2-c2ccccc2)ccc1=O [Example 88, 6-[5-amino-6-(2-furyl)-3-phenyl-2-pyrazinyl]-2-isopropyl-3(2H)-pyridazinone] |
| 89 to 93 °C | COc1ccc(CNc2nc(-c3ccccc3)c(-c3ccc(=O)n(C(C)C)n3)nc2C#N)cc1 [Example 47, 6-(1-isopropyl-6-oxo-1,6-dihydro-3-pyridazinyl)-3-[(4-methoxybenzyl)amino]-5-phenyl-2-pyrazinecarbonitrile] |
| 238 to 240 °C | Cc1csc(-c2nc(-c3ccc(=O)n(C(C)C)n3)c(-c3ccccc3)nc2N)n1 [Example 27, 6-[5-amino-6-(4-methyl-thiazol-2-yl)-3-phenyl-2-pyrazinyl]-2-isopropyl-3(2H)-pyridazinone] |
| > 250 °C | CCn1nc(-c2nc(C(N)=O)c(N)nc2-c2ccccc2)ccc1=O [Example 14, 3-Amino-6-(1-ethyl-6-oxo-1,6-dihydro-3-pyridazinyl)-5-phenyl-2-pyrazinecarboxamide] |
| 204.5 to 207 °C | CC(C)n1nc(-c2nc(NCCc3ccccc3)c(N)nc2-c2ccccc2)ccc1=O [Example 135, 6-{5-amino-3-phenyl-6-[(2-phenylethyl)amino]-2-pyrazinyl}-2-isopropyl-3(2H)-pyridazinone] |
| 212 to 214.5 °C | CC(C)n1nc(-c2nc(N3CCOCC3)c(N)nc2-c2ccccc2)ccc1=O [Example 140, 6-[5-amino-6-(4-morpholinyl)-3-phenyl-2-pyrazinyl]-2-isopropyl-3(2H)-pyridazinone] |
| > 250 °C | Cn1nc(-c2nc(-n3cncn3)c(N)nc2-c2ccccc2)ccc1=O [Example 155, 6-[5-amino-3-phenyl-6-(1H-1,2,4-triazol-1-yl)-2-pyrazinyl]-2-methyl-3(2H)-pyridazinone] |
| > 250 °C | CC(C)n1nc(-c2[nH]c(=O)c(N)nc2-c2ccccc2)ccc1=O [Example 174, 6-(5-amino-6-oxo-3-phenyl-1,6-dihydro-2-pyrazinyl)-2-isopropyl-3(2H)-pyridazinone] |
| 188 to 189 °C | CC(C)n1nc(-c2nc(NCCN(C)C)c(N)nc2-c2ccccc2)ccc1=O [Example 132, 6-(5-amino-6-{[2-(dimethylamino)ethyl]amino}-3-phenyl-2-pyrazinyl)-2-isopropyl-3(2H)-pyridazinone] |
| 227 to 228.5 °C | CC(C)n1nc(-c2nc(NC3CCCCC3)c(N)nc2-c2ccccc2)ccc1=O [Example 137, 6-[5-amino-6-(cyclohexylamino)-3-phenyl-2-pyrazinyl]-2-isopropyl-3(2H)-pyridazinone] |
| 219 to 221 °C | CC(C)n1nc(-c2nc(NCC3CCCCC3)c(N)nc2-c2ccccc2)ccc1=O [Example 105, 6-{5-amino-6-[(cyclohexylmethyl)amino]-3-phenyl-2-pyrazinyl}-2-isopropyl-3(2H)-pyridazinone] |
| 88 to 91 °C | CC(C)n1nc(-c2nc(N3CCN(Cc4ccccn4)CC3)c(N)nc2-c2ccccc2)ccc1=O [Example 114, 6-{5-amino-3-phenyl-6-[4-(2-pyridylmethyl)-1-piperazinyl]-2-pyrazinyl}-2-isopropyl-3(2H)-pyridazinone] |
| > 250 °C | CCn1nc(-c2nc(C(=O)O)c(NCc3ccc(OC)cc3)nc2-c2ccccc2)ccc1=O [Example 57, 6-(1-ethyl-6-oxo-1,6-dihydro-3-pyridazinyl)-3-[(4-methoxybenzyl)amino]-5-phenyl-2-pyrazinecarboxylic acid] |
| 166.5 to 168 °C | COc1ccc(CNc2nc(-c3ccccc3)c(-c3ccc(=O)n(C)n3)nc2C#N)cc1 [Example 16, 3-[(4-Methoxybenzyl)amino]-6-(1-methyl-6-oxo-1,6-dihydro-3-pyridazinyl)-5-phenyl-2-pyrazinecarbonitrile] |

| melting point | SMILES |
| --- | --- |
| 240 to 243 °C | CC(C)n1nc(-c2nc(C#N)c(N)nc2-c2ccccc2Br)ccc1=O [Example 188, 3-amino-5-(2-bromophenyl)-6-(1-isopropyl-6-oxo-1,6-dihydro-3-pyridazinyl)-2-pyrazinecarbonitrile] |
| 181 to 183 °C | CC(C)n1nc(-c2nc(-c3cccs3)c(N)nc2-c2ccccc2)ccc1=O [Example 80, 6-[5-amino-3-phenyl-6-(2-thienyl)-2-pyrazinyl]-2-isopropyl-3(2H)-pyridazinone] |
| 240 to 242 °C | CC(C)n1nc(-c2nc(-c3nc(-c4ccccc4)cs3)c(N)nc2-c2ccccc2)ccc1=O [Example 28, 6-[5-Amino-3-phenyl-6-(4-phenyl-thiazol-2-yl)-2-pyrazinyl]-2-isopropyl-3(2H)-pyridazinone] |
| 132 to 136 °C | CC(C)n1nc(-c2nc(-n3cccc3)c(N)nc2-c2ccccc2)ccc1=O [Example 147, 6-[5-amino-3-phenyl-6-(1H-pyrrol-1-yl)-2-pyrazinyl]-2-isopropyl-3(2H)-pyridazinone] |
| 163 to 165 °C | CC(C)n1nc(-c2nc(N3CCN(c4ccccn4)CC3)c(N)nc2-c2ccccc2)ccc1=O [Example 142, 6-{5-amino-3-phenyl-6-[4-(2-pyridyl)-1-piperazinyl]-2-pyrazinyl}-2-isopropyl-3(2H)-pyridazinone] |
| 235 to 238 °C | CC(C)n1nc(-c2nc(N3CC4CCC(C3)O4)c(N)nc2-c2ccccc2)ccc1=O [Example 119, 6-[5-amino-6-(8-oxa-3-azabicyclo[3.2.1]oct-3-yl)-3-phenyl-2-pyrazinyl]-2-isopropyl-3(2H)-pyridazinone] |
| 195 to 197 °C | CC(C)n1nc(-c2nc(C(N)=O)c(C#N)nc2-c2ccccc2)ccc1=O [Example 23, 3-Cyano-6-(1-isopropyl-6-oxo-1,6-dihydro-3-pyridazinyl)-5-phenyl-2-pyrazinecarboxamide] |
| 179 to 181 °C | CC(C)n1nc(-c2nc(OC3CCN(Cc4ccccc4)C3)c(N)nc2-c2ccccc2)ccc1=O (centres unmarked) [Example 176, 6-{5-amino-6-[(1-benzyl-3-pyrrolidinyl)oxy]-3-phenyl-2-pyrazinyl}-2-isopropyl-3(2H)-pyridazinone] |
| 173 to 176 °C | CC(C)n1nc(-c2nc(OCCc3ccccc3)c(N)nc2-c2ccccc2)ccc1=O [Example 174, 6-[5-amino-3-phenyl-6-(2-phenylethoxy)-2-pyrazinyl]-2-isopropyl-3(2H)-pyridazinone] |
| 200 to 202 °C | CCCCNc1nc(-c2ccc(=O)n(C(C)C)n2)c(-c2ccccc2)nc1N [Example 99, 6-[5-amino-6-(butylamino)-3-phenyl-2-pyrazinyl]-2-isopropyl-3(2H)-pyridazinone] |
| 148 to 150 °C | CCn1nc(-c2ncc(NCc3ccc(OC)cc3)nc2-c2ccccc2)ccc1=O [Example 58, 2-ethyl-6-{5-[(4-methoxybenzyl)amino]-3-phenyl-2-pyrazinyl}-3(2H)-pyridazinone] |
| 148 to 150 °C | CC(C)n1nc(-c2nc(Sc3ccc(F)cc3)c(N)nc2-c2ccccc2)ccc1=O [Example 159, 6-{5-amino-6-[(4-fluorophenyl)thio]-3-phenyl-2-pyrazinyl}-2-isopropyl-3(2H)-pyridazinone] |
| 225 to 226 °C | CC(C)n1nc(-c2nc(-c3ccccc3)c(N)nc2-c2ccccc2)ccc1=O [Example 78, 6-(5-amino-3,6-diphenyl-2-pyrazinyl)-2-isopropyl-3(2H)-pyridazinone] |
| 233 to 236 °C | CCOC(=O)C=Cc1nc(-c2ccc(=O)n(C(C)C)n2)c(-c2ccccc2)nc1N [Example 95, ethyl 3-[3-amino-6-(1-isopropyl-6-oxo-1,6-dihydro-3-pyridazinyl)-5-phenyl-2-pyrazinyl]acrylate] |
| 105 to 106.5 °C | CC(C)n1nc(-c2nc(OCCCc3ccccc3)c(N)nc2-c2ccccc2)ccc1=O [Example 175, 6-[5-amino-3-phenyl-6-(3-phenylpropoxy)-2-pyrazinyl]-2-isopropyl-3(2H)-pyridazinone] |
| > 250 °C | Cn1nc(-c2nc(-n3cnc4ccccc43)c(N)nc2-c2ccccc2)ccc1=O [Example 156, 6-[5-amino-6-(1H-benzimidazol-1-yl)-3-phenyl-2-pyrazinyl]-2-methyl-3(2H)-pyridazinone] |
| 228 to 230 °C | CC(C)n1nc(-c2nc(-c3ccsc3)c(N)nc2-c2ccccc2)ccc1=O [Example 79, 6-[5-amino-3-phenyl-6-(3-thienyl)-2-pyrazinyl]-2-isopropyl-3(2H)-pyridazinone] |
| 139 to 141 °C | COCCOc1nc(-c2ccc(=O)n(C)n2)c(-c2ccccc2)nc1N [Example 180, 6-[5-amino-6-(2-methoxyethoxy)-3-phenyl-2-pyrazinyl]-2-methyl-3(2H)-pyridazinone] |

| SMILES | melting point |
| --- | --- |
| CC(C)n1nc(-c2nc(OCCOC(C)(C)C)c(N)nc2-c2ccccc2)ccc1=O [Example 167, 6-[5-amino-6-(2-tert-butoxyethoxy)-3-phenyl-2-pyrazinyl]-2-isopropyl-3(2H)-pyridazinone] | 163 to 165 °C |
